The numbers were not newly measured in US20050060811A1, “Fabric care article and method for conserving energy” (The Procter & Gamble Company, priority 2000, published 2005), which cites them from elsewhere.

Details in one data set: not given
Consider `ClC=CC[N+]12CN3CN(CN(C3)C1)C2.[Cl-]` [Dowicil 200, 1-(3-Chlorallyl)-3,5,7-triaza-1-azoniaadamantane chloride], for which the “solubility in water” value was “freely soluble in water”.

Staying with this data set, now noted: in water.
Turning to `OCCOc1ccccc1` [2-phenoxyethanol], the water solubility entry is on record as “about 2.67%”.

`OCCc1ccccc1` [2-phenylethanol]: the water solubility result is recorded as “about 2%”.

For the molecule `O=[N+]([O-])C1(Br)COCOC1` [Bronidox L, 5-bromo-5-nitro-1,3-dioxane], the water solubility result is “about 0.46%”.

As for `O=[N+]([O-])C(Br)(CO)CO` [Bronopol, 2-bromo-2-nitropropane-1,3-diol], the water solubility entry is “about 25%”.

For the molecule `CC1(C)C(=O)N(CO)C(=O)N1CO` [DMDM hydantoin, 1,3-bis(hydroxymethyl)-5,5-dimethyl-2,4-imidazolidinedione], the water solubility result is listed as “more than 50%”.

For the molecule `OCc1ccccc1` [benzyl alcohol], the water solubility entry was “about 4%”.

Regarding `[H]/N=C(\N/C(=N/[H])NCCCCCCNC(=N)NC(=N)Nc1ccc(Cl)cc1)Nc1ccc(Cl)cc1` [chlorhexidine diacetate, 1,1′-hexamethylene bis(5-(p-chlorophenyl)biguanide)], the water solubility result is “about 1.8%”.

For `[H]/N=C(\N/C(=N/[H])NCCCCCCNC(=N)NC(=N)Nc1ccc(Cl)cc1)Nc1ccc(Cl)cc1` [chlorhexidine digluconate, 1,1′-hexamethylene bis(5-(p-chlorophenyl)biguanide)], the water solubility entry is listed as “about 70%”.

On to `CC(C)(O)C(Cl)(Cl)Cl` [chlorobutanol, 1,1,1-Trichloro-2-methylpropan-2-ol], for which the water solubility entry is listed as “about 0.8%”.

As for `[Na+].[O-][n+]1ccccc1[S-]` [sodium pyrithione], the water solubility entry is recorded as “about 50%”.
